According to patent EP0369733A2, “Fluorescent indicator dyes for alkali metal cations, their preparation and use” (THE REGENTS OF THE UNIVERSITY OF CALIFORNIA, priority 1988, dated 1990):
Where “and” joins values, the source holds several entries; their conditions need not be identical. Equal entries are not always repeated.

Assays:
[1] = Cation titration followed by absorbance or fluorescence excitation spectra: Na⁺ binding; settings: for Kd: read-out: Dissociation constants (Kd) in mM for Na⁺; for Na⁺ affinity: association constant, inert background cation (tetramethylammonium)
Method: (§1) • Footnote a: For molecular structures, see Fig. 1. • Footnote b: Except where otherwise noted, these dissociation constants were measured with the chelator dissolved in 0.1 M tetramethylammonium chloride, at a pH held high enough with 1-5 mM tris(hydroxymethyl)aminomethane for protonation to be insignificant. The absorbance spectrum, or the fluorescence excitation spectrum for those compounds (2GG, 2NN, 2OO, 2PP, 3NN) with acronyms was measured as a function of the concentration of cation added as a solid or concentrated aqueous solution of the halide salt. No correction has been made for the changing ionic strength of the solution, which started from 0.1 M and increased, but the absorbances and fluorescence amplitudes were applied for dilution of the dye and any slight quenching due to high concentrations of Cl⁻. • Footnote c: These protonation constants were determined in 0.1 M tetramethylammonium chloride, 10 mM tris(hydroxymethyl)aminomethane, titrated with 5 M H₃PO₄ to successively lower pH values measured with a Radiometer PHM84 meter. […] The first number is the wavelength in nanometers, followed in parentheses by 10⁻³ x the corresponding extinction coefficient, M⁻¹cm⁻¹. […] Emission maxima are not corrected for the spectral sensitivity of the emission detection. Quantum efficiencies were measured (13) by comparing the integral of the corrected emission spectrum with the corresponding integral for a solution of quinine bisulfate in 1 N H₂SO₄ of matched absorbance at the excitation wavelength.
(§2) Affinities for other cations were usually measured by titrating aqueous solutions of the indicator with metal chlorides added either as solid or from concentrated stock solutions, taking care to minimize dilution and correct for it. A convenient way to mass-produce premeasured micromole to millimole aliquots of solid NaCl or KCl was to pipet saline solutions into polypropylene micro test tubes and evaporate the water in an oven. The standard ionic background was again 100 mM tetramethylammonium chloride, usually with a few mM of tris(hydroxymethyl)-aminomethane base to hold the pH high enough (pH 8-9) to insure that protonation was negligible. This convenient titration procedure had the slight disadvantage that the ionic strength was not constant, especially when large quantities of a salt had to be added due to weak affinities. […] When constant ionic strength was desired, the chelator was made up at identical concentrations in matched solutions of NaCl, KCl, or tetramethylammonium chloride, then these stocks were mixed in the desired proportions. All measurements were made at room temperature (22°, ±2° C).

[2] = Proton dissociation constants in 0.1 M tetramethylammonium chloride; settings: second value (second protonation), 10 mM Tris titrated with 5 M H₃PO₄
Method: (§4) • Footnote a: For molecular structures, see Fig. 1. • Footnote b: Except where otherwise noted, these dissociation constants were measured with the chelator dissolved in 0.1 M tetramethylammonium chloride, at a pH held high enough with 1-5 mM tris(hydroxymethyl)aminomethane for protonation to be insignificant. […] No correction has been made for the changing ionic strength of the solution, which started from 0.1 M and increased, but the absorbances and fluorescence amplitudes were applied for dilution of the dye and any slight quenching due to high concentrations of Cl⁻. • Footnote c: These protonation constants were determined in 0.1 M tetramethylammonium chloride, 10 mM tris(hydroxymethyl)aminomethane, titrated with 5 M H₃PO₄ to successively lower pH values measured with a Radiometer PHM84 meter.
(§5) Proton dissociation constants of the chelators were measured by spectrophotometry or spectrofluorometry of buffered solutions, containing either 100 mM tetramethylammonium chloride as inert supporting electrolyte, or 121.5 mM K⁺, 13.5 mM Na⁺, and 1 mM Mg²⁺ to simulate the cation environment of vertebrate cytoplasm (14). Traces of UV-absorbing impurities in the tetramethylammonium chloride (Alfa Inorganics) were removed by filtration through acid-­washed activated charcoal. The concentration of the tetramethylammonium chloride was then measured by chloride titration, and the absence of significant Na⁺ contamination was verified with a sodium-selective glass electrode (Microelectrodes Inc.). When the chelators contained two protonatable nitrogens, the curve of absorbance or fluorescence versus pH was analyzed by computerized least-squares fitting to the equations for two arbitrary proton equilibria (15), with the added assumption that the two protonations each caused the same change in extinction coefficient or fluorescence.

[3] = Cation titration followed by absorbance or fluorescence excitation spectra: Li⁺ binding; settings: 0.1 M tetramethylammonium chloride, 1-5 mM tris(hydroxymethyl)aminomethane, high pH; read-out: Dissociation constants (Kd) in mM for Li⁺
Method: as §1, §2

[4] = physchem; settings: 0.1 m tetramethylammonium chloride
Method: as §4, §5

[5] = Fluorescence excitation/emission spectra and quantum efficiency; format: physicochemical; settings: for Emission maxima -Na⁺: 100 mM tetramethylammonium chloride; for Emission maxima -Na⁺ / Quantum efficiency -Na⁺: no Na⁺; for Emission maxima -Na⁺ / Emission maxima +Na⁺: not corrected for detector sensitivity; for Quantum efficiency -Na⁺ / Quantum efficiency +Na⁺: relative to quinine bisulfate in 1 N H₂SO₄ (0.55); for Emission maxima +Na⁺: saturating NaCl; for Quantum efficiency +Na⁺: saturating Na⁺; for fluorescence quantum yield: ±Na⁺ not specified
Method: as §1
(§3) UV absorbance spectra were recorded initially on a Cary 210 and later on a Perkin-Elmer Lambda Array 3840 spectrophotometer. Fluorescence excitation and emission spectra and quantum efficiencies were measured on a Spex Fluorolog 111 as described previously (13).

[6] = UV absorbance spectra without and with saturating cation; format: physicochemical; settings: for Absorbance maxima -Na⁺ (wavelength): 100 mM tetramethylammonium chloride plus 1-5 mM Tris; for Absorbance maxima -Na⁺ (wavelength) / Absorbance maxima -Na⁺ (extinction coefficient): no Na⁺; for Absorbance maxima +Na⁺ (wavelength): enough NaCl added (0.2-1 M) to saturate the Na⁺ binding; for Absorbance maxima -Na⁺ (extinction coefficient) / Absorbance maxima +Na⁺ (extinction coefficient): number is 10⁻³ x the extinction coefficient; for Absorbance maxima -Na⁺ (extinction coefficient): lower limits for most compounds; for Absorbance maxima +Na⁺ (extinction coefficient): lower limits, saturating NaCl (0.2-1 M)
Method: as §1, §3

[7] = 0.1 M tetramethylammonium chloride, 1-5 mM tris(hydroxymethyl)aminomethane, pH high enough for protonation to be insignificant, 22°
[8] = footnote h: 3.0 M ionic strength (3.0 M NaCl mixed with 3.0 M tetramethylammonium chloride)

| SMILES | Kd [1, 7] | Na⁺ affinity [1] | Kd [1, 8] | pKa [2] | pKa [4] | Emission maxima -Na⁺ [5] | Quantum efficiency -Na⁺ [5] | Emission maxima +Na⁺ [5] | Quantum efficiency +Na⁺ [5] | fluorescence quantum yield [5] | Absorbance maxima -Na⁺ (wavelength) [6] | Absorbance maxima +Na⁺ (wavelength) [6] | Absorbance maxima -Na⁺ (extinction coefficient) [6] | Absorbance maxima +Na⁺ (extinction coefficient) [6] | further results |
| --- | --- | --- | --- | --- | --- | --- | --- | --- | --- | --- | --- | --- | --- | --- | --- |
| O=C(O)CCC(=O)Nc1ccc(N2CCOCCOCCN(c3ccc(NC(=O)CCC(=O)O)c4cc5ccccc5nc34)CCOCC2)c2nc3ccccc3cc12 [Compound 2II, N,N-bis-(1-succinamidoacridin-4-yl)-diaza[15]-crown-5] | 0.32 mM | 3125 M⁻¹ | 0.4 mM | 6.86 | 8.19 | 480 nanometers | <.001 | 625 nanometers | <.001 | very poor | 414 nanometers and 359 nanometers and 244 nanometers | 360 nanometers and 251 nanometers |  |  | Na⁺:K⁺ selectivity ([1]; ratio of Na⁺ to K⁺ affinity): > 500; Kd [3]: 11.5 mM |
| Nc1ccc(N2CCOCCOCCOCCOCC2)c(C(=O)O)c1 [Compound 1B, N-(4-amino-2-carboxyphenyl)-aza[15]-crown-5] | 71 mM | 14 M⁻¹ |  |  | 9.21 |  |  |  |  |  | 295 nanometers | 296 nanometers | 1100 M⁻¹ cm⁻¹ | 1100 M⁻¹ cm⁻¹ |  |
| COc1ccc(OC)c(N2CCOCCOCCN(c3cc(OC)ccc3OC)CCOCC2)c1 [Compound 2LL, N,N-bis-(2,5-dimethoxyphenyl)-diaza[15]-crown-5] | 10 to 20 mM |  |  |  |  |  |  |  |  |  | 295 nanometers and 213 nanometers | 291 nanometers |  | 4000 M⁻¹ cm⁻¹ |  |
| Cc1ccc2cc(O)cc(N3CCOCCOCCN(c4cc(O)cc5ccc(C)nc45)CCOCC3)c2n1 [Compound 2FF, N,N-bis-(6-hydroxy-2-methyl-8-quinolinyl)-diaza[15]-crown-5] | 8.9 mM |  |  |  |  | 497 nanometers |  | 466 nanometers |  |  | 363 nanometers | 362 nanometers | 2400 M⁻¹ cm⁻¹ | 2300 M⁻¹ cm⁻¹ |  |
| Cc1ccc2c(n1)c(N1CCOCCOCCN(c3cc4oc(-c5ccc(C(=O)O)c(C(=O)O)c5)cc4c4ccc(C)nc34)CCOCC1)cc1oc(-c3ccc(C(=O)O)c(C(=O)O)c3)cc12 [Compound 2GG, N,N-bis(2-(3,4-dicarboxyphenyl)-7-methylfuro [3,2-f]quinolin-5-yl)-diaza[15]-crown-5] | 4.7 mM |  |  | 6.8 | 7.9 | 486 nanometers | .005 | 525 nanometers | .01 |  |  |  |  |  | Absorbance maxima -Na⁺ (wavelength) ([6]; listed as 2GG (SQFP)): 373 nanometers and 308 nanometers; Absorbance maxima +Na⁺ (wavelength) ([6]; listed as 2GG (SQFP)): 362 nanometers and 307 nanometers; Absorbance maxima -Na⁺ (extinction coefficient) ([6]; listed as 2GG (SQFP)): 24000 M⁻¹ cm⁻¹ and 22000 M⁻¹ cm⁻¹; Absorbance maxima +Na⁺ (extinction coefficient) ([6]; listed as 2GG (SQFP)): 31000 M⁻¹ cm⁻¹ and 28000 M⁻¹ cm⁻¹ |
| CC(=O)Nc1ccc(N2CCOCCOCCN(c3ccc(NC(C)=O)c4ccc(C)nc34)CCOCC2)c2nc(C)ccc12 [Compound 2DD, N,N-bis-(5-acetamido-2-methyl-8-quinolinyl)-diaza[15]-crown-5] | 9.4 mM |  | 4.4 mM | 5.62 | 7.55 | 525 nanometers | .01 | 510 nanometers | .01 | 0.01 |  |  |  |  | Na⁺ affinity relative to 2CC ([1]; fraction of the affinity of 2CC retained): more than half; Absorbance maxima -Na⁺ (wavelength) ([6]; listed as 2DO): 344 nanometers and 256 nanometers; Absorbance maxima +Na⁺ (wavelength) ([6]; listed as 2DO): 306 nanometers and 237 nanometers |
